The values that follow come from patent US12274703B2, “Compositions and methods of treatment for neurological disorders comprising a dementia” (Gliapharm SA, priority 2017, dated 2025).

Read-outs that look alike come from different tables or passages of the source.

One experiment deals with primary astrocytes. The experiment is described as follows: High throughput screening for lactate secretion: acidification of extracellular medium (SNARF5). It is filed as cell-based, mouse. More on the design: key to Score / HTS Score (lactate) / HTS Score (SNARF5) / Score_SNARF: fraction of positive control activity (positive control = 100%). As to conditions: for Score_SNARF: primary screening confirmation (SNARF5); for Score / HTS Score (SNARF5) / Emax at 10 µM: 10 uM, 90 min; for Emax at 10 µM: Mus musculus, Astrocyte, 1.5 h. The method in brief: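 Mouse cortical astrocytes (DIV17) stimulated 90 min at 10 uM compound (1% DMSO) in low-bicarbonate DMEM, 5 mM glucose, with SNARF-5F; extracellular acidification read as 630/580 nm emission ratio (exc 480 nm). Duplicates; score as % of CCCP 2 uM control, hits >3× summed SD above DMSO.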

Experiment [1] has as its system astrocytes. The experiment is described as follows: Extracellular lactate quantification. In kind it is cell-based, mouse. As to conditions: for Score_LACTATE: Appendix I, secondary screening, dosage of extracellular lactate; for EC50: Mus musculus, Astrocyte. An outline of the steps:
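Primary cortical astrocytes from 1–2-day-old OF1 mouse pups, used at DIV14–17, stimulated 90 min at 37 °C in D5030 with 5 mM glucose, compounds 0–100 μM. Extracellular L-lactate measured enzymatically (LDH/NAD, pH 10, 1 h 37 °C) by NADH fluorescence (ex 340/em 450) against L-lactate standard curve.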

The subject of experiment [2] is astrocytes. The experiment is described as follows: MTT viability assay. In kind it is cell-based. Particulars: Mus musculus, Astrocyte; CDC54K hits; cellular toxicity, 0-200 uM. How it is done:
(§1) Primary cultures of cerebrocortical astrocytes were obtained from 1-2-day-old OF1 mouse pups (Charles River Laboratories). Briefly, cortices were isolated and minced in small pieces under a dissecting microscope. The cells were incubated for 30 min at 37° C. in a solution containing 20 U/ml of papain enzyme (Worthington Biochemical), L-cysteine 1 mM (Sigma), and 10 kU/ml DNase I (Worthington Biochemical) for an enzymatic dissociation. Papain activity was stopped by the addition of fetal calf serum (FCS) to the solution, and a single-cell suspension was then obtained by mechanical dissociation, which consisted in cells trituration in a DMEM (D7777, Sigma-Aldrich) medium (supplemented with 44 mm NaHCO3, and 10 ml/L antibiotic/antimycotic solution) containing 10% FCS. The cells were seeded at an average density of 6×10^4 cells/cm^2 in poly-D-lysine-coated 96, 12 or 6-well culture plates, depending on their use, and incubated at 37° C. in a humidified atmosphere containing 5% CO2/95% air. Culture medium was renewed twice per week. Cells were stimulated and harvested between DIV14 and DIV17, when confluence and cell growth were optimal.
For cell toxicity determination, astrocytes in 96-well plates were stimulated 24 h (37° C. 5% CO2/95% air) with a gradient ranging from 0.1 to 200 μM of tested compounds. After stimulation, 5 mg/ml thiazol blue tetrazolium bromide (MTT, Sigma-Aldrich) in warm D5030 complete medium was added to each well, and cells were incubated for 4 h at 37° C. (5% CO2). The medium was then removed by aspiration, and the reaction was stopped by the addition of 50 μl DMSO per well.
The amount of reduced MTT (formazan) solubilized in DMSO was then determined spectrophotometrically using absorbance at 570 nm (Safire 2; Tecan).
MTT cellular viability assay was performed on astrocytes exposed to molecules from the Prestwick library (Prestwick hits; concentrations ranging from 0 uM to 200 uM).
MTT cellular viability assay was performed on astrocytes exposed to CDC54K hits (concentrations ranging from 0 uM to 200 uM).

Experiment [3] deals with astrocytes. The experiment is described as follows: Production of H2O2 (mitochondrial activity). As to conditions: Mus musculus, Astrocyte, 1.5 h; CDC54K hits; 0-200 uM, 90 min. In kind it is cell-based. The method, then: as §1
Hydrogene peroxide (H2O2) released in the supernatant is detected enzymatically with Amplex red (Zhou, Diwu et al. 1997). Oxidation of Amplex red is catalysed by the horseradish peroxidase in presence of H2O2 into highly fluorescent resorufin. Fluorescence measure is read at 545 nm extinction, 590 nm emission. The amount of H2O2 was expressed relatively to the proteins content extracted from the cells in culture. […]
Mitochondrial respiration in astrocytes was measured through production of H2O2 at 90 min after stimulation with CDC54K hits (ranging from 0 to 200 uM).

The mark [4] stands for this setting: Appendix I, primary screening, relative to positive control.
Where [5] appears, read: CDC54K hits, relative to positive control CCCP 2 uM.
Where [6] appears, read: 1.5 h, CDC54K hits, 0-100 uM, 90 min, read-out: Lactate EC50.
[7] abbreviates: Appendix I, primary screening, relative to positive control, read-out: Score.
Setting [8] is: CDC54K hits, relative to positive control CCCP 2 uM, read-out: HTS Score (SNARF5).

In the experiment on primary astrocytes (Appendix I), `CC(=O)N1CCc2sc(S(=O)(=O)N3CCN(c4ccccc4C)CC3)cc2C1` [P025-0159] registered a Score_SNARF of 0.8007. For the same molecule, the Score with primary astrocytes (setting [4]) was 0.9535. The “HTS Score (SNARF5)” value with primary astrocytes (setting [5]) was found to be 0.953. Also, in the experiment with astrocytes [1], the Score_LACTATE turned out to be 0.9232. For the same molecule, the EC50 in the experiment on astrocytes [1] (setting [6]) stood at 8.7 µM. In addition, the IC50 with astrocytes [2] and with astrocytes [3] was above 200 µM each time.
On to `c1ccc2c(c1)CCN(c1ncnc3sccc13)C2` [T0517-8250], for which the Emax at 10 µM in the experiment on primary astrocytes (setting [7]) and in the experiment with primary astrocytes (setting [8]) was 95.7% throughout. Also, in the experiment with astrocytes [1] (setting [6]), the half-maximal effective concentration (EC50) came to 3 µM. Besides, the half-maximal inhibitory concentration (IC50) in the experiment with astrocytes [2] was 140 µM; with astrocytes [3], above 200 µM.
In turn, `Cc1nc2ccc(NS(=O)(=O)c3cccc(F)c3)cc2s1` [T6937001] came in with a Score_SNARF with primary astrocytes (Appendix I) of 0.8557. The molecule also gave a Score with primary astrocytes (setting [4]) of 0.8094. In addition, the “HTS Score (SNARF5)” value in the experiment with primary astrocytes (setting [5]) worked out at 0.809. For the same molecule, in the experiment on astrocytes [1], the Score_LACTATE was determined as 0.9088. Also, the EC50 in the experiment on astrocytes [1] (setting [6]) was 11.5 µM. Moreover, the concentration for half-maximal inhibition (IC50) with astrocytes [2] and in the experiment with astrocytes [3] was above 200 µM in each case.
For the molecule `CCc1nc(-c2csc(S(=O)(=O)NCc3ccc4c(c3)OCO4)c2)no1` [L287-0468], the Score_SNARF in the experiment on primary astrocytes (Appendix I) was determined as 0.6592. For the same molecule, the Score in the experiment with primary astrocytes (setting [4]) was found to be 0.5971. Also, the “HTS Score (SNARF5)” value in the experiment with primary astrocytes (setting [5]) is on record as 0.597. Besides, the Score_LACTATE in the experiment with astrocytes [1] worked out at 0.6179. Besides, the concentration for a half-maximal effect (EC50) with astrocytes [1] (setting [6]) was 7.9 µM. In addition, the IC50 in the experiment with astrocytes [2] and in the experiment on astrocytes [3] was above 200 µM throughout.
Take `CCn1nccc1-c1csc(S(=O)(=O)Nc2ccc(Cl)cc2F)c1` [L924-1031]: the Score_SNARF in the experiment with primary astrocytes (Appendix I) came to 0.8713. In addition, the Score in the experiment with primary astrocytes (setting [4]) is 0.9286. The “HTS Score (SNARF5)” value with primary astrocytes (setting [5]) was found to be 0.929. The same molecule showed a Score_LACTATE in the experiment with astrocytes [1] of 1.632. Also, the 50% effective concentration (EC50) in the experiment with astrocytes [1] (setting [6]) stood at 25.3 µM. Besides, the IC50 is above 200 µM in the experiment with astrocytes [2] and 48.6 µM with astrocytes [3].
Take `Cc1ccccc1NC(=O)C1CCCN(c2ncnc3oc(C)c(C)c23)C1` (stereo not shown) [F228-0422]: the Score_SNARF with primary astrocytes (Appendix I) amounted to 0.7702. This molecule yielded a Score in the experiment with primary astrocytes (setting [4]) of 1.057. The “HTS Score (SNARF5)” value with primary astrocytes (setting [5]) is 1.058. The molecule further returned a Score_LACTATE in the experiment on astrocytes [1] of 0.6364. The EC50 in the experiment on astrocytes [1] (setting [6]) was 0.5 µM. Moreover, the IC50 in the experiment with astrocytes [2] and in the experiment on astrocytes [3] was above 200 µM in each case.
Consider `O=S(=O)(Nc1cc(F)cc(F)c1)c1ccc2ccccc2c1` [T5884038], for which the Emax at 10 µM in the experiment on primary astrocytes (setting [7]) and in the experiment with primary astrocytes (setting [8]) was 72.1% in each case. For the same molecule, the concentration giving a half-maximal response (EC50) with astrocytes [1] (setting [6]) worked out at 12.2 µM. The IC50 in the experiment with astrocytes [2] is 70.5 µM; in the experiment with astrocytes [3], above 200 µM.
For the molecule `COc1cc(C)c(Cl)cc1S(=O)(=O)NCc1ccncc1` [T5580243], the Score_SNARF with primary astrocytes (Appendix I) is listed as 0.8565. Moreover, the Score with primary astrocytes (setting [4]) is 0.8528. Also, the “HTS Score (SNARF5)” value in the experiment on primary astrocytes (setting [5]) stood at 0.853. This molecule also returned a Score_LACTATE in the experiment on astrocytes [1] of 0.7229. In the experiment on astrocytes [1] (setting [6]), the EC50 stood at 11 µM. The concentration for half-maximal inhibition (IC50) in the experiment on astrocytes [2] and in the experiment on astrocytes [3] was above 200 µM throughout.
`O=C1CCCN1c1ccc(S(=O)(=O)Nc2cccc(/C=C/c3ccccn3)c2)cc1` [T5644989] came in with a Score_SNARF in the experiment on primary astrocytes (Appendix I) of 0.8385. In the experiment on primary astrocytes (setting [4]), this molecule yielded a Score of 0.6796. Moreover, the “HTS Score (SNARF5)” value in the experiment with primary astrocytes (setting [5]) amounted to 0.68. In addition, the Score_LACTATE in the experiment with astrocytes [1] amounted to 0.7859. Also, the EC50 in the experiment with astrocytes [1] (setting [6]) turned out to be 7.9 µM. For the same molecule, the concentration for half-maximal inhibition (IC50) with astrocytes [2] and with astrocytes [3] was above 200 µM throughout.
Turning to `COc1ccc(Nc2nc(N3CCOCC3)c3ccccc3n2)cc1.Cl` [T0508-5190], the Emax at 10 µM in the experiment with primary astrocytes (setting [7]) and with primary astrocytes (setting [8]) was 45.9% in each case. Further, in the experiment on astrocytes [1] (setting [6]), the EC50 is 3.1 µM. Moreover, the figures for the IC50 in the experiment with astrocytes [2] and with astrocytes [3] were 75 µM and 185 µM, respectively.
Regarding `COc1ccccc1[N+]1=C2CCCCCN2C(O)(c2ccc(C)cc2)C1` (stereo not shown) [K404-0834], the Emax at 10 µM in the experiment with primary astrocytes (setting [7]) and with primary astrocytes (setting [8]) was 112% each time. Also, in the experiment on astrocytes [1] (setting [6]), the concentration for a half-maximal effect (EC50) amounted to 1.8 µM. For the same molecule, the IC50 in the experiment with astrocytes [2] is 150 µM; in the experiment on astrocytes [3], above 200 µM.
Turning to `N#Cc1ccc(C(=O)N2CCC(Nc3ncnc4c3CCC4)C2)cc1` (stereo not shown) [T636-2387], in the experiment with primary astrocytes (setting [5]), the “HTS Score (SNARF5)” value is recorded as 0.445. In addition, the Emax at 10 µM in the experiment with primary astrocytes (setting [7]) stood at 44.5%. The “Score Lact.” value in the experiment on astrocytes [1] (Appendix II) was 0.30. Also, the EC50 with astrocytes [1] (setting [6]) was 11.5 µM; in the experiment on astrocytes [1] (Appendix II, lactate secretion, read-out: EC50), 6.83 µM. Besides, the IC50 in the experiment on astrocytes [2] and in the experiment with astrocytes [3] was above 200 µM each time.
